Test results as given in article PMC10482691, “LTP induction by structural rather than enzymatic functions of CaMKII” (Nature, 2023).

Columns and labels:
Assay type in all cases: biochemical
[1] = biological target: Flt3(h) (Homo sapiens, UniProt P36888); assay: Kinase selectivity panel (residual activity at 1 μM); conditions: inhibitor at 1 μM; read-out: residual kinase activity in % of maximal activity
[2] = biological target: SAPK2a(h) (Homo sapiens, UniProt Q16539); assay: as above; conditions: inhibitor at 1 μM
[3] = biological target: SGK(h) (Homo sapiens, UniProt O00141); assay: as above; conditions: inhibitor at 1 μM; read-out: residual kinase activity in % of maximal activity
[4] = biological target: CaMKIIα F89G (Homo sapiens, UniProt Q9UQM7, F89G); assay: In vitro kinase reactions with CaMKII F89G ± NM-PP1 (pT286, pS831); conditions: 10 µM NM-PP1
Procedure: Fig. 4 The CaMKII mutation F89G impairs ATP binding but binds the ATP-competitive inhibitor NM-PP1 that restores GluN2B binding and LTP-induced synaptic translocation. Data are presented as mean values ± s.e.m. a, Schematic of the pharmacogenetic method of ATP-competitive CaMKII inhibition; enlargement of the CaMKII ATP-binding pocket by the F89G mutation allows for selective binding of the ATP-competitive inhibitor NM-PP1. b, Immunoblots of in vitro kinase reactions at 30 °C including GFP–CaMKII WT, K42M and F89G with GST–GluA1-c tail. […] Correlation indices were measured before and after Ionomycin-induced colocalization of GFP–CaMKII (WT, K42M and F89G) with mCherry-2BC, represented as change in the correlation index (vehicle: n = 22, 17, 12 cells; NM-PP1: n = 20, 24, 13 cells; one-way ANOVA, Tukey’s multiple comparisons test). […] CaMKII synaptic enrichment was measured before and after cLTP (n = 13, 14, 14 cells; RM two-way ANOVA with Šídák’s multiple comparisons test). […] CaMKII synaptic enrichment was measured before and after cLTP (n = 7, 6, 7 cells; RM two-way ANOVA with Šídák’s multiple comparisons test). […]
CaMKII-mediated phosphorylation of GluA1 S831 or GluN2B S1303 was measured by in vitro kinase reaction with a purified GST–GluA1 C-terminal tail or GST-GluN2B C-terminal tail. […]

Sequence of SAPK2a(h) (Q16539 whole entry): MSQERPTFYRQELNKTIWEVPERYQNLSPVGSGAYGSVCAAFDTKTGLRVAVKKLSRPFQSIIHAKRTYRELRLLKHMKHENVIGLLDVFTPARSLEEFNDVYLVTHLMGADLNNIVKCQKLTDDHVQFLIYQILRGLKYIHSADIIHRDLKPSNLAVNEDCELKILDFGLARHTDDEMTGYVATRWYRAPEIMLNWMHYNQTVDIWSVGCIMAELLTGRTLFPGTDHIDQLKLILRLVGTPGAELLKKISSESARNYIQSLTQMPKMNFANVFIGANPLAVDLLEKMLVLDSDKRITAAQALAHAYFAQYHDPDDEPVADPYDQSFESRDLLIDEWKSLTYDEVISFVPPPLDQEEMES
Sequence of SGK(h) (O00141 whole entry): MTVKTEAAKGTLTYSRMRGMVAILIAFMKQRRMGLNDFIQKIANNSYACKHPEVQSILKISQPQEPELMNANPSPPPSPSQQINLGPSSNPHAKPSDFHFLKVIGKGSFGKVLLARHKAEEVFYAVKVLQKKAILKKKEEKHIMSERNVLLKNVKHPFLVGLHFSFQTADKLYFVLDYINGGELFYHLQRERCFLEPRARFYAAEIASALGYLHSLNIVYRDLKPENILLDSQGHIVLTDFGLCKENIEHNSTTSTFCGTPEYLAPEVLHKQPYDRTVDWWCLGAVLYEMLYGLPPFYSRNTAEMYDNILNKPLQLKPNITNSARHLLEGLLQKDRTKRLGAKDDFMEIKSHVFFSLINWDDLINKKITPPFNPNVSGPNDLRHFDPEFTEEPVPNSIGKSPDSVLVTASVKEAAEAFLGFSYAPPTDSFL
Sequence of Flt3(h) (P36888 27-993): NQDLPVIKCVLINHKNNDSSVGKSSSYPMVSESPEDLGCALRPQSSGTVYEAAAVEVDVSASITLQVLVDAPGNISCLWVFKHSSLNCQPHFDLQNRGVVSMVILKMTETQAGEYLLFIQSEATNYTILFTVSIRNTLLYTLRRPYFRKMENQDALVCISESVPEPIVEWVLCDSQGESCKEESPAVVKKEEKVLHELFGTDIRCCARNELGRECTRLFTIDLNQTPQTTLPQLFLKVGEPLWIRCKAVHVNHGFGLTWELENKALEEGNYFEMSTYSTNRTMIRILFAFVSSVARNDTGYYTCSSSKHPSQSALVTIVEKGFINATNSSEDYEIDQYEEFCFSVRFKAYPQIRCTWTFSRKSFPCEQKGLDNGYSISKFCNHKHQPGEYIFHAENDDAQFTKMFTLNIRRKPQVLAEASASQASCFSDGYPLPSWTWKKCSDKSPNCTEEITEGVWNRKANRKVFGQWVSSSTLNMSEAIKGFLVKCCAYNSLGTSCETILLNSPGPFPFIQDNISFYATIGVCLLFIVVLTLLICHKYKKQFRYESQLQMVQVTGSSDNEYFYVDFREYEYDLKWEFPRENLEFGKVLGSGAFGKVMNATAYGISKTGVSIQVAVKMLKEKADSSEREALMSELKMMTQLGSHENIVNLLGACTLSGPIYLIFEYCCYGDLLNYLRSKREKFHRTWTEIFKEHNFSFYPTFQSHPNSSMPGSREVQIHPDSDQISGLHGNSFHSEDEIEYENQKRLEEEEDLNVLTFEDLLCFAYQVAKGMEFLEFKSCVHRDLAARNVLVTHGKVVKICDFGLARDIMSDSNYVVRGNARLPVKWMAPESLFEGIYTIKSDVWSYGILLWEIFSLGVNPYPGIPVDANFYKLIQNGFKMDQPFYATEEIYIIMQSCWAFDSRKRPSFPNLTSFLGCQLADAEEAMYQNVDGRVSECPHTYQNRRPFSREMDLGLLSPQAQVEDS

SMILES | remaining activity at 1 µM [1] | residual kinase activity in % of maximal activity [2] | remaining activity at 1 µM [3] | effect on residual activity of CaMKII F89G [4]
NCCNc1cccc(-c2ccnc3[nH]c4ccccc4c23)c1 [AS283] | 3% | 95% | 86% | –
CC(C)(C)n1nc(Cc2cccc3ccccc23)c2c(N)ncnc21 [NM-PP1] | – | – | – | further reduced
